Results from US20260242391A1 (priority 2023, published 2026).

Columns and labels:
HL-60 = HL-60 differentiation potency; assay type: cell-based; conditions: Homo sapiens
in vitro = conditions: human

| Structure (SMILES) | EC50 (HL-60) [nM] | IC50 (in vitro) [nM] |
| --- | --- | --- |
| C[C@H]1[C@@H](Oc2ccc(OCC(=O)O)cc2Cl)O[C@@H]2O[C@@]3(C)CC[C@H]4[C@H](C)CC[C@@H]1[C@@]24OO3 [Compound 218, 2-(3-chloro-4-(((3R,5aS,6R,8aS, 9R,10S,12R, 12aR)-3,6,9-trimethyldeca-hydro-12H-3,12-epoxy[1,2]dioxepino[4,3-i]isochromen-10-yl)oxy)phenoxy) acetic acid] | 101 | 690 |
| CC(C)C(C(=O)O)c1ccc(O[C@H]2O[C@@H]3O[C@@]4(C)CC[C@H]5[C@H](C)CC[C@@H]([C@H]2C)[C@@]35OO4)c(F)c1 (stereo partly drawn) [Compound 266, 2-(3-fluoro-4-(((3R,5aS,6R,8aS, 9R,10S,12R, 12aR)-3,6,9-trimethyldeca-hydro-12H-3,12-epoxy[1,2]dioxepino[4,3-i]isochromen-10-yl)oxy)phenyl)-3-methylbutanoic acid] | 10.3 | 60 |
| C[C@H]1[C@@H](OCc2ccc(C(=O)NC3CC4(C3)CC(C(=O)O)C4)cc2)O[C@@H]2O[C@@]3(C)CC[C@H]4[C@H](C)CC[C@@H]1[C@@]24OO3 (stereo partly drawn) [Compound 291, 6-(4-((((3R,5aS,6R,8aS, 9R,10S,12R, 12aR)-3,6,9-trimethyldeca-hydro-12H-3,12-epoxy[1,2]dioxepino[4,3-i]isochromen-10-yl)oxy)methyl)benzamido)spiro [3.3]heptane-2-carboxylic acid] | 47.8 | 13400 |
| C[C@H]1[C@@H](OCC(=O)Nc2ccc(C(=O)O)cc2)O[C@@H]2O[C@@]3(C)CC[C@H]4[C@H](C)CC[C@@H]1[C@@]24OO3 [Compound 213, 4-(2-(((3R,5aS,6R,8aS, 9R,10S,12R, 12aR)-3,6,9-trimethyldeca-hydro-12H-3,12-epoxy[1,2]dioxepino[4,3-i]isochromen-10-yl)oxy)actamido) benzoic acid] | 325 | > 20000 |
| C[C@H]1[C@@H](Oc2ccc(C3(C(=O)O)COC3)cc2)O[C@@H]2O[C@@]3(C)CC[C@H]4[C@H](C)CC[C@@H]1[C@@]24OO3 [Compound 283, 3-(4-(((3R,5aS,6R,8aS, 9R,10S,12R, 12aR)-3,6,9-trimethyldeca-hydro-12H-3,12-epoxy[1,2]dioxepino[4,3-i]isochromen-10-yl)oxy)phenyl) oxetane-3-carboxylic acid] | 40.3 | > 20000 |
| C[C@H]1[C@@H](Oc2ccc(CC(=O)NC34CCC(C(=O)O)(C3)C4)cc2)O[C@@H]2O[C@@]3(C)CC[C@H]4[C@H](C)CC[C@@H]1[C@@]24OO3 [Compound 300, 4-(2-(4-(((3R,5aS,6R,8aS, 9R,10S,12R, 12aR)-3,6,9-trimethyldeca-hydro-12H-3,12-epoxy[1,2]dioxepino[4,3-i]isochromen-10-yl)oxy)phenyl)acetamido) bicyclo[2.1.1] hexane-1-carboxylic acid] | 17 | 19500 |
| C[C@H]1[C@@H](OCc2c(F)cc(C(=O)N[C@H]3CC[C@@H](C(=O)O)C3)cc2F)O[C@@H]2O[C@@]3(C)CC[C@H]4[C@H](C)CC[C@@H]1[C@@]24OO3 [Compound 309, (1R,3S)-3-(3,5-difluoro-4-((((3R,5aS,6R,8aS, 9R,10S,12R, 12aR)-3,6,9-trimethyldeca-hydro-12H-3,12-epoxy[1,2]dioxepino[4,3-i]isochromen-10-yl)oxy)methyl)benzamido) cyclopentane-1-carboxylic acid] | 31.3 | 1740 |
| C[C@H]1[C@@H](Oc2ccc3[nH]c(C(=O)O)cc3c2)O[C@@H]2O[C@@]3(C)CC[C@H]4[C@H](C)CC[C@@H]1[C@@]24OO3 [Compound 208, 5-(((3R,5aS,6R,8aS, 9R,10S,12R, 12aR)-3,6,9-trimethyldeca-hydro-12H-3,12-epoxy[1,2]dioxepino[4,3-i]isochromen-10-yl)oxy)-1H-indole-2-carboxylic acid] | 69.3 | 370 |
| C[C@H]1[C@@H](Oc2c(F)cc(OCC(=O)O)cc2F)O[C@@H]2O[C@@]3(C)CC[C@H]4[C@H](C)CC[C@@H]1[C@@]24OO3 [Compound 238, 2-(3,5-difluoro-4-(((3R,5aS,6R,8aS, 9R,10S,12R, 12aR)-3,6,9-trimethyldeca-hydro-12H-3,12-epoxy[1,2]dioxepino[4,3-i]isochromen-10-yl)oxy)phenoxy) acetic acid] | 71.3 | 6910 |
| C[C@H]1[C@@H](O[C@H]2C[C@@H](C(=O)NC34C5C6C3C3C4C5C63C(=O)O)C2)O[C@@H]2O[C@@]3(C)CC[C@H]4[C@H](C)CC[C@@H]1[C@@]24OO3 (stereo partly drawn) [Compound 255, 4-((1R,3s)-3-(((3R,5aS,6R,8aS, 9R,10S,12R, 12aR)-3,6,9-trimethyldeca-hydro-12H-3,12-epoxy[1,2]dioxepino[4,3-i]isochromen-10-yl)oxy)cyclo-butane-1-carboxamido) cubane-1-carboxylic acid] | 2320 | > 20000 |
| C[C@H]1[C@@H](Oc2ccc(C(=O)O)cc2Cl)O[C@@H]2O[C@@]3(C)CC[C@H]4[C@H](C)CC[C@@H]1[C@@]24OO3 [Compound 235, 3-chloro-4-(((3R,5aS,6R,8aS, 9R,10S,12R, 12aR)-3,6,9-trimethyldeca-hydro-12H-3,12-epoxy[1,2]dioxepino[4,3-i]isochromen-10-yl)oxy)benzoic acid] | 37.5 | 15000 |
| Cc1cc(C(=O)O)cc(Cl)c1CO[C@H]1O[C@@H]2O[C@@]3(C)CC[C@H]4[C@H](C)CC[C@@H]([C@H]1C)[C@@]24OO3 [Compound 280, 3-chloro-5-methyl-4-((((3R,5aS,6R,8aS, 9R,10S,12R, 12aR)-3,6,9-trimethyldeca-hydro-12H-3,12-epoxy[1,2]dioxepino[4,3-i]isochromen-10-yl)oxy)methyl) benzoic acid] | 246 | 3220 |
| C[C@H]1[C@@H](Oc2ccc(CC(=O)N[C@H](C(=O)O)C3CC3)cc2)O[C@@H]2O[C@@]3(C)CC[C@H]4[C@H](C)CC[C@@H]1[C@@]24OO3 [Compound 301, (S)-2-cyclopropyl-2-(2-(4-(((3R,5aS,6R,8aS, 9R,10S,12R, 12aR)-3,6,9-trimethyldeca-hydro-12H-3,12-epoxy[1,2]dioxepino[4,3-i]isochromen-10-yl)oxy)phenyl)acetamido) acetic acid] | 63.5 | > 20000 |
| C[C@H]1[C@@H](OCc2ccc(C(=O)N[C@H](C(=O)O)C(C)(C)C)cc2)O[C@@H]2O[C@@]3(C)CC[C@H]4[C@H](C)CC[C@@H]1[C@@]24OO3 [Compound 281, (S)-3,3-dimethyl-2-(4-((((3R,5aS,6R,8aS, 9R,10S,12R, 12aR)-3,6,9-trimethyldeca-hydro-12H-3,12-epoxy[1,2]dioxepino[4,3-i]isochromen-10-yl)oxy)methyl)benzamido) butanoic acid] | 112 | 430 |
| C[C@H]1[C@@H](OCc2ccc(C(=O)N[C@H]3CC[C@@H](C(=O)O)C3)cc2)O[C@@H]2O[C@@]3(C)CC[C@H]4[C@H](C)CC[C@@H]1[C@@]24OO3 [Compound 275, (1R,3S)-3-(4-((((3R,5aS,6R,8aS, 9R,10S,12R, 12aR)-3,6,9-trimethyldeca-hydro-12H-3,12-epoxy[1,2]dioxepino[4,3-i]isochromen-10-yl)oxy)methyl)benzamido) cyclopentane-1-carboxylic acid] | 240 | 6800 |
| C[C@H]1[C@@H](OCc2ccc(-c3nnc(CC(=O)O)o3)cc2)O[C@@H]2O[C@@]3(C)CC[C@H]4[C@H](C)CC[C@@H]1[C@@]24OO3 [Compound 304, 2-(5-(4-((((3R,5aS,6R,8aS, 9R,10S,12R, 12aR)-3,6,9-trimethyldeca-hydro-12H-3,12-epoxy[1,2]dioxepino[4,3-i]isochromen-10-yl)oxy)methyl)phenyl)-1,3,4-oxadiazol-2-yl)acetic acid] | 11.2 | 30 |
| C[C@H]1[C@@H](OCc2ccc(C(=O)N[C@H]3C[C@@H](C(=O)O)C3)cc2)O[C@@H]2O[C@@]3(C)CC[C@H]4[C@H](C)CC[C@@H]1[C@@]24OO3 [Compound 278, (1R,3s)-3-(4-((((3R,5aS,6R,8aS, 9R,10S,12R, 12aR)-3,6,9-trimethyldeca-hydro-12H-3,12-epoxy[1,2]dioxepino[4,3-i]isochromen-10-yl)oxy)methyl)benzamido) cyclobutane-1-carboxylic acid] | 354 | > 20000 |
| C[C@H]1[C@@H](OC[C@H]2CC[C@@H](C(=O)N[C@@H](CC(F)(F)F)C(=O)O)CC2)O[C@@H]2O[C@@]3(C)CC[C@H]4[C@H](C)CC[C@@H]1[C@@]24OO3 [Compound 256, (S)-4,4,4-trifluro-2-((1R,4R)-4-((((3R,5aS,6R,8aS, 9R,10S,12R, 12aR)-3,6,9-trimethyldeca-hydro-12H-3,12-epoxy[1,2]dioxepino[4,3-i]isochromen-10-yl)oxy)methyl)cyclohexane-1-carboxamido) butanoic acid] | 3070 | 15300 |
| C[C@@H]1CC[C@H]2[C@@H](C)C(OCc3ccc(C(=O)O)cc3C(F)(F)F)O[C@@H]3O[C@@]4(C)CC[C@@H]1[C@]32OO4 (stereo partly drawn) [Compound 197, 3-(trifluoromethyl)-4-((((3R,5aS,6R,8aS, 9R,12R, 12aR)-3,6,9-trimethyldeca-hydro-12H-3,12-epoxy[1,2]dioxepino[4,3-i]isochromen-10-yl)oxy)methyl) benzoic acid] | 66 | 5380 |
| CO[C@H](C)[C@H](NC(=O)c1ccc(O[C@H]2O[C@@H]3O[C@@]4(C)CC[C@H]5[C@H](C)CC[C@@H]([C@H]2C)[C@@]35OO4)cc1)C(=O)O [Compound 248, O-methyl-N-(4-(((3R,5aS,6R,8aS, 9R,10S,12R, 12aR)-3,6,9-trimethyldeca-hydro-12H-3,12-epoxy[1,2]dioxepino[4,3-i]isochromen-10-yl)oxy)benzoyl)-L-threonine] | 412 | > 20000 |
| C[C@H]1[C@@H](Oc2ccc(Cn3cc(C(=O)O)nn3)c(Br)c2)O[C@@H]2O[C@@]3(C)CC[C@H]4[C@H](C)CC[C@@H]1[C@@]24OO3 [Compound 264, 1-(2-bromo-4-(((3R,5aS,6R,8aS,9R,10S,12R, 12aR)-3,6,9-trimethyldeca-hydro-12H-3,12-epoxy[1,2]dioxepino[4,3-i]isochromen-10-yl)oxy)benzyl)-1H-1,2,3-triazole-4-carboxylic acid] | 159 | 1430 |
